{
  "source": "ChEMBL document CHEMBL1141788",
  "about": "“Dendridine A, a bis-indole alkaloid from a marine sponge Dictyodendrilla Species” (2005)",
  "format_in_all_cases": "functional",
  "key": {"Bacillus subtilis": {"test_system": "Bacillus subtilis", "assay": "Antibacterial activity against Bacillus subtilis"}, "Micrococcus luteus": {"test_system": "Micrococcus luteus", "assay": "Antibacterial activity against Micrococcus luteus"}, "Cryptococcus neoformans": {"test_system": "Cryptococcus neoformans", "assay": "Antifungal activity against Cryptococcus neoformans"}},
  "data": [
    {"smiles": "NCCc1c[nH]c2c(O)cc(Br)c(-c3c(Br)cc(O)c4[nH]cc(CCN)c34)c12", "note": "[DENDRIDINE A]", "values": [
      {"measurement": "MIC", "setting": "Bacillus subtilis", "value": 8.3, "unit": "µg/mL"},
      {"measurement": "MIC", "setting": "Micrococcus luteus", "value": 4.2, "unit": "µg/mL"},
      {"measurement": "MIC", "setting": "Cryptococcus neoformans", "value": 8.3, "unit": "µg/mL"}
    ]}
  ]
}
